What was measured:
[1] = cited from earlier work
[2] = Naratriptan sublingual spray two-way crossover study in patients; type: in vivo; conditions: in the presence of 0.18-0.2% alkylsaccharide (dodecylmaltoside)
Procedure: Manufacturing process: Naratriptan hydrochloride salt is dissolved in water and required quantity of polyethylene glycol or ethanol is added. The alkyl glycoside, flavors, aspartame are next dissolved in the solution. Final adjustment of volume is made with water. The sublingual formulation with and without dodecylmaltoside alkylsaccharide is administered using a metered spray pump to 20 patients in a two way, two period cross over study.

[3] = whole-swallowed tablet, cited from earlier work
[4] = cited from earlier work; remark: listed apart in the source
human nasal epithelium = conditions: in vivo
blood D-glucose [5] = assay: Insulin eye drops with absorption enhancer in xylazine/ketamine-anesthetized hyperglycemic rats, blood D-glucose; type: in vivo, rat; conditions: for Blood Glucose: before eye drops
blood D-glucose [6] = assay: Insulin nose drops with tetradecylmaltoside in rats, blood glucose; type: in vivo, rat; conditions: nose drop, same insulin concentration with 0.5% tetradecylmaltoside
Description: Tetradecylmaltoside (TDM) in combination with insulin also produced a drop in blood D-glucose levels when administered in the form of a drop intranasally as well as via a drop by the ocular route. […] Thus, intranasal delivery and administration of the alkyl saccharide with drug results in lowering of blood glucose levels.

[7] = Intranasal triptans with alkylsaccharide in rats, plasma levels by HPLC; type: in vivo;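 further: rats in groups of eight given 20 µL into one nostril, dose expressed as triptan free base, Cmax and Tmax read from plasma concentration–time curves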
Procedure: Each set of drug solutions is administered to six groups of eight rats each by 20 uL instillation to a single nare of each animal. […] After the last blood sample is collected each animal is cuthanizcd with CO2. After blood collection, plasma is immediately prepared from each blood sample using lithium/heparin as the anticoagulant. Plasma samples are stored at −70° C. until analyzed. […] The observed Tmax values from each plot is determined by inspection of the concentration vs time plots and recorded as shown in Table XII. The doses designated in this table reflect amounts of triptan free base in each case.

[8] = test system: Candida albicans (ATCC No. 10231); assay: Antimicrobial activity of alkylglycoside solutions, plate count log reduction; type: cell-based; conditions: 0.2%, BSA
Description: (§1) 20110-2209. The viable microorganisms used in the invention were not more than five passages removed from the original ATCC culture. As described herein, one passage is defined as the transfer of organisms from an established culture to fresh medium and all transfers are counted.
(§2) Cultures received from the ATCC are resuscitated according to the directions provided by the ATTC. Cells grown in broth were pelleted by centrifugation, resuspended in 1/20th the volume of fresh maintenance broth, and combined with an equal volume of 20% (v/v in water) sterile glycerol. Cells grown on agar were scraped from the surface into the maintenance broth also containing 10% glycerol broth. Small aliquots of the suspension were dispensed into sterile vials and the vials were stored in liquid nitrogen or in a mechanical freezer at a temperature no higher than about −50° C. When a fresh seed-stock vial was required, it was removed and used to inoculate a series of working stock cultures. These working stock cultures were then used periodically (each day in the case of bacteria and yeast) to start the inoculum culture.
(§3) The culture conditions for the inoculum culture is substantially as described in Table IV. For example, suitable media can include but is not limited to, Soybean-Casein Digest or Sabouraud Dextrose Agar Medium. […]
(§4) The suspension should be refrigerated if it is not used within 2 hours. To confirm the initial cfu per mL estimate, the number of cfu per mL in each suspension was determined using the conditions of media and microbial recovery incubation times listed in Table IV (e.g., from about 3 to about 7 days). This value serves to calibrate the size of inoculum used in the test. The bacterial and yeast suspensions were used within 24 hours of harvest; whereas the fungal preparation can be stored under refrigeration for up to 7 days.
(§5) To determine which alkylglycoside formulations have antibacterial activity, the formulations were prepared in phosphate buffered saline (PBS) at pH 7. As a source of nutrition, either 1.5 mg/mL bovine serum albumin (BSA; see Tables V and VI) or 1 mg/mL of PYY was added (see Table VII) to the medium. BSA (CAS Number: 9048-46-8) was obtained from Sigma-Aldrich, St. Louis, Mo., USA, n-dodecyl-4-O-α-D-glucopyranosyl-β-D-glucopyranoside and n-tetradecyl-4-O-α-D-glucopyranosyl-β-D-glucopyranoside were obtained from Anatrace Inc., Maumee, Ohio, USA, and PYY was obtained from Bachem California Inc., Torrance, Calif., USA.
(§6) Antibacterial activity of the alkylglycosides were conducted in four sterile, capped bacteriological containers of suitable size into which a sufficient volume of alkylglycoside solution had been transferred. Each container was inoculated with one of the prepared and standardized inoculums and mixed. The volume of the suspension inoculum was between about 0.5% and about 1.0% of the volume of the alkylglycoside solution. […]. To determine the level of inhibition of growth, or reduction of growth based on a logarithmic scale, the initial concentration of viable microorganisms in each test preparation was estimated based on the concentration of microorganisms in each of the standardized inoculum as determined by the plate-count method. The inoculated containers were then incubated at about 22.5° C.±2.5. The growth or non-growth of the microorganisms in each culture/container were again determined at day 14 and day 28. The number of cfu present in each calculation was determined by the plate-count procedure standard in the art for the applicable intervals. The change in the orders of magnitude of bacterium and/or fungi was then determined by subtracting the first calculated log 10 values of the concentrations of cfu per mL present at the start or beginning (e.g., day 0), from the log 10 values of the concentration of cfu per mL for each microorganism at the applicable test intervals (e.g., day 14 and day 28; see Tables V, VI and VII).

[9] = test system: Escherichia coli (ATCC No. 8739); assay: as above; type: cell-based; conditions: 0.2%, BSA; growth from initial count
Description: as §1, §2, §3, §4, §5, §6

[10] = test system: Aspergillus niger (ATCC No. 16404); assay: as above; type: cell-based; conditions: 0.2%, BSA
Description: as §1, §2, §3, §4, §5, §6

[11] = test system: Staphylococcus aureus (ATCC No. 6538); assay: as above; type: cell-based; conditions: 0.2%, BSA
Description: as §1, §2, §3, §4, §5, §6

food intake = conditions: injection; less than usual, on average; cited from earlier work
mucociliary surfaces = conditions: concentrations far below those used in intranasal formulations; cited from earlier work
blood glucose = assay: Intranasal insulin in […] TDM, anesthesia-induced hyperglycemia model; type: in vivo, mouse; conditions: intranasal insulin alone, minus […] TDM
Description: Intranasal administration of drugs or agents are possible in animal models e.g. mice and rats, although the nasal opening in is very small. In the experiments and results described herein, an anesthesia-induced hyperglycemia model was used (described in Examples above). Hyperglycemic animals were induced by an intraperitoneal (IP) injection containing xylazine-ketamine and blood glucose levels were monitored over a period of time. Immediately after the xylazine-ketamine injection, there was an increase in the blood glucose levels as shown in FIG. 2 (closed dark circles), and blood glucose levels were about 450 mg/dl. […] Blood glucose levels peak to about 482 mg/dl by 30 minutes after the xylazine-ketamine injection (FIG. 2). […] At about the 75 minute time point, blood glucose levels gradually returned to the baseline level in a normoglycemic mouse, or about 80-100 mg/dl.

[12] = Naratriptan 0.22 mg/kg intranasal, alkylsaccharide 0.02%
[13] = Naratriptan 0.22 mg/kg intranasal, alkylsaccharide 0.05%
[14] = Naratriptan 0.22 mg/kg intranasal, alkylsaccharide 0.1%
[15] = Naratriptan 0.22 mg/kg intranasal, alkylsaccharide 0.5%
[16] = Naratriptan 0.22 mg/kg intranasal, alkylsaccharide 2%
[17] = Sumatriptan 6.2 mg/kg intranasal, alkylsaccharide 0.02%
[18] = Sumatriptan 6.2 mg/kg intranasal, alkylsaccharide 0.05%
[19] = Sumatriptan 6.2 mg/kg intranasal, alkylsaccharide 0.1%
[20] = Sumatriptan 6.2 mg/kg intranasal, alkylsaccharide 0.5%
[21] = Sumatriptan 6.2 mg/kg intranasal, alkylsaccharide 2%

Compound: COc1ccc2[nH]cc(CCNC(C)=O)c2c1 [melatonin, 5-methoxy-N-acetyltryptamine]
- bioavailability (estimated) ([1]; oral administration): 30-50%
- absolute bioavailability ([1]; oral tablets, normal healthy volunteers, DeMuro et al. (2000)): approximately 15%

Compound: CNS(=O)(=O)CCc1ccc2[nH]cc(C3CCN(C)CC3)c2c1 [naratriptan]
- bioavailability across the sublingual mucosal membranes [2]: little increase

Compound: Cc1cc2c(s1)Nc1ccccc1N=C2N1CCN(C)CC1 [olanzapine, Olanzapine]
- time to peak concentrations ([3]; oral dose): approximately 6 hours
- dose metabolized by first pass before reaching systemic circulation [3]: approximately 40%

Compound: O=C(c1ccc(OCCN2CCCCC2)cc1)c1c(-c2ccc(O)cc2)sc2cc(O)ccc12 [raloxifene]
- water solubility [4]: approx. 0.25 mg/L

Compound: CCCCCCCCCCCCCCO[C@@H]1O[C@H](CO)[C@@H](O[C@H]2O[C@H](CO)[C@@H](O)[C@H](O)[C@H]2O)[C@H](O)[C@H]1O [tetradecyl maltoside, n-tetradecyl-4-O-α-D-glucopyranosyl-β-D-glucopyranoside]
- irritation of the nasal mucosa (human nasal epithelium): no observable irritation
- hypoglycemic effect / insulin absorption enhancement (blood D-glucose [5]; eye drops 0.2% insulin + 0.5% enhancer): effective
- hypoglycemic effect / insulin absorption enhancement (blood D-glucose [5]; eye drops 0.2% insulin + […] enhancer): effective
- effect on blood glucose levels (blood D-glucose [5]; eye drops 0.2% regular porcine insulin with […] tetradecylmaltoside): prompt and prominent drop in blood glucose levels
- Blood Glucose (blood D-glucose [5]; time −10 min): 311 mg/dL
- Blood Glucose (blood D-glucose [5]; time −20 min): 319 mg/dL
- effect on blood glucose levels (blood D-glucose [6]): decrease even more
- Ratio Cmax(alkylsacch)/Cmax(No alkylsacch) [7, 12]: ≦1.5
- Tmax [7, 12]: ~60 min
- Ratio Cmax(alkylsacch)/Cmax(No alkylsacch) [7, 13]: ≧1.5
- Tmax [7, 13]: ~5 to 15 min
- Ratio Cmax(alkylsacch)/Cmax(No alkylsacch) [7, 14]: ≧1.5
- Tmax [7, 14]: ~5 to 15 min
- Ratio Cmax(alkylsacch)/Cmax(No alkylsacch) [7, 15]: ≧1.5
- Tmax [7, 15]: ~5 to 15 min
- Ratio Cmax(alkylsacch)/Cmax(No alkylsacch) [7, 16]: ≧1.5
- Tmax [7, 16]: ~5 to 15 min
- Tmax ([7]; Rizatriptan […] intranasal, alkylsaccharide 0.02%): ~60 min
- Tmax ([7]; Rizatriptan […] intranasal, alkylsaccharide 0.05%): ~5 to 15 min
- Tmax ([7]; Rizatriptan […] intranasal, alkylsaccharide 0.1%): ~5 to 15 min
- Tmax ([7]; Rizatriptan […] intranasal, alkylsaccharide 0.5%): ~5 to 15 min
- Tmax ([7]; Rizatriptan […] intranasal, alkylsaccharide 2%): ~5 to 15 min
- Ratio Cmax(alkylsacch)/Cmax(No alkylsacch) [7, 17]: ≦1.5
- Tmax [7, 17]: ~60 min
- Ratio Cmax(alkylsacch)/Cmax(No alkylsacch) [7, 18]: ≧1.5
- Tmax [7, 18]: ~5 to 15 min
- Ratio Cmax(alkylsacch)/Cmax(No alkylsacch) [7, 19]: ≧1.5
- Tmax [7, 19]: ~5 to 15 min
- Ratio Cmax(alkylsacch)/Cmax(No alkylsacch) [7, 20]: ≧1.5
- Tmax [7, 20]: ~5 to 15 min
- Ratio Cmax(alkylsacch)/Cmax(No alkylsacch) [7, 21]: ≧1.5
- Tmax [7, 21]: ~5 to 15 min
- Log Reductions, Day 14 [8]: 3.0 orders of orders of magnitude reduction
- Log Reductions, Day 28 [8]: ≧5.4 orders of orders of magnitude reduction
- Log Reductions, Day 28 [9]: No growth
- Log Reductions, Day 14 [10]: 0.5 orders of orders of magnitude reduction
- Log Reductions, Day 28 ([10]; growth from initial count): No growth
- Log Reductions, Day 14 [11]: ≧5 orders of orders of magnitude reduction
- Log Reductions, Day 28 [11]: ≧5 orders of orders of magnitude reduction

Compound: PYY: gut hormone fragment peptide PYY3-36
- reduction of food eaten (food intake): 30%

Compound: benzalkonium chloride
- toxicity to mucociliary surfaces (mucociliary surfaces): significant disruption of the mucociliary surfaces

Compound: insulin alone: insulin (Humalog) given intranasally without TDM
- return to normoglycemic levels (blood glucose): never return to normoglycemic levels
- time mark at which blood glucose starts to decline (blood glucose): ~120 min

From patent US9283280B2, “Compositions for drug administration” (Aegis Therapeutics, LLC, priority 2008, dated 2016)
